Assay results taken from ChEMBL document CHEMBL1201862, “PubChem BioAssay data set” (2004).
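Assay format: 96-well plates, 48-hour exposure. GI50 = concentration required for 50% inhibition of growth.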 Calls of active or inactive are those of the source. Cut-off read from the data, not from the text of the source: active = GI50 up to about 1.1 µM and inactive = higher.

How the values were obtained:
Assay in all cases: NCI anticancer screen, dose series, 48 h
786-0 = test system: 786-0
ACHN = test system: ACHN
CAKI-1 = test system: CAKI-1
HCT-15 = test system: HCT-15
HOP-62 = test system: HOP-62
HOP-92 = test system: HOP-92
MCF7 = test system: MCF7
MDA-MB-231 = test system: MDA-MB-231
MDA-MB-435 = test system: MDA-MB-435
MDA-N = test system: MDA-N
NCI-H226 = test system: NCI-H226
NCI-H460 = test system: NCI-H460
OVCAR-8 = test system: OVCAR-8
RPMI-8226 = test system: RPMI-8226
RXF 393 = test system: RXF 393
SK-MEL-28 = test system: SK-MEL-28
SK-OV-3 = test system: SK-OV-3
SNB-19 = test system: SNB-19
SNB-75 = test system: SNB-75
U-251 = test system: U-251

Row | SMILES | GI50 (786-0) | GI50 (ACHN) | GI50 (CAKI-1) | GI50 (HCT-15) | GI50 (HOP-62) | GI50 (HOP-92) | GI50 (MCF7) | GI50 (MDA-MB-231) | GI50 (MDA-MB-435) | GI50 (MDA-N) | GI50 (NCI-H226) | GI50 (NCI-H460) | GI50 (OVCAR-8) | GI50 (RPMI-8226) | GI50 (RXF 393) | GI50 (SK-MEL-28) | GI50 (SK-OV-3) | GI50 (SNB-19) | GI50 (SNB-75) | GI50 (U-251)
1 | O=C1c2ccccc2C(=O)c2c(NCCCNCCO)ccc(NCCCNCCO)c21 | 4.79 µM (inactive) | 4.51 µM (inactive) | 10 µM (inactive) | 12.9 µM | 5.35 µM (inactive) | 10.7 µM (inactive) | 2.88 µM (inactive) | 11.6 µM (inactive) | 12.6 µM (inactive) | 7.48 µM (inactive) | 1.61 µM (inactive) | 3.8 µM (inactive) | 7.74 µM (inactive) | 10.6 µM (inactive) | 4.69 µM (inactive) | 12 µM (inactive) | 14.6 µM (inactive) | 5.11 µM (inactive) | 7.13 µM (inactive) | 5.36 µM (inactive)
2 | CNC/C(Cl)=N/S(=O)(=O)c1ccc(C)cc1 | 9.93 µM (inactive) | 15.8 µM (inactive) | 13.2 µM (inactive) | 16.1 µM | 14 µM (inactive) | 14.8 µM (inactive) | 7.94 µM (inactive) | 13.7 µM (inactive) | 6.15 µM (inactive) | 6.85 µM (inactive) | 19.5 µM (inactive) | 8.17 µM (inactive) | 18.9 µM (inactive) | 6.61 µM (inactive) | 2.2 µM (inactive) | 31.6 µM (inactive) | 22.8 µM (inactive) | 20.4 µM (inactive) | 5.18 µM (inactive) | 6.93 µM (inactive)
3 | Cc1cccc(C)c1NC(=O)C(C#N)C1=C(Cl)C(=O)c2ccccc2C1=O (stereo not given) | 22 µM (inactive) | 15.2 µM (inactive) | 18.5 µM (inactive) | 19.1 µM | 18 µM (inactive) | 10.2 µM (inactive) | 20 µM (inactive) | 18.6 µM (inactive) | 17.2 µM (inactive) | 14.4 µM (inactive) | 12.1 µM (inactive) | 22.1 µM (inactive) | 16.9 µM (inactive) | 8.67 µM (inactive) | > 32.8 µM (inactive) | 20.2 µM (inactive) | 20.9 µM (inactive) | 16 µM (inactive) | 15.7 µM (inactive) | 18.1 µM (inactive)
4 | CC(C)Oc1cccc(N2C(CCc3c[nH]c4ccc(Br)cc34)=NS(=O)(=O)c3cnccc32)c1 | 45 µM (inactive) | 28.7 µM (inactive) | 22.7 µM (inactive) | 30.8 µM | 94 µM (inactive) | 17.5 µM (inactive) | 21.5 µM (inactive) | > 100 µM (inactive) | 46.2 µM (inactive) | 37.3 µM (inactive) | 37.3 µM (inactive) | 35.1 µM (inactive) | 51.2 µM (inactive) | 24 µM (inactive) | 59.8 µM (inactive) | > 100 µM (inactive) | 36.8 µM (inactive) | 49.5 µM (inactive) | 48 µM (inactive) | 64.6 µM (inactive)
5 | CC1CCC2C(C(=O)O[C@H]3C4C=CO[C@@H](OC5OC(CO)C(O)C(O)C5O)C4[C@@]4(CO)O[C@@H]34)=CO[C@@H](OC3OC(CO)C(O)C(O)C3O)C12 (stereo not given in full) | > 10 µM (inactive) | > 10 µM (inactive) | > 10 µM (inactive) | > 10 µM | > 10 µM (inactive) | > 10 µM (inactive) | > 10 µM (inactive) | > 10 µM (inactive) | > 10 µM (inactive) | > 10 µM (inactive) | > 10 µM (inactive) | > 10 µM (inactive) | > 10 µM (inactive) | > 10 µM (inactive) | > 10 µM (inactive) | > 10 µM (inactive) | > 10 µM (inactive) | > 10 µM (inactive) | > 10 µM (inactive) | > 10 µM (inactive)
